Test results taken from ChEMBL document CHEMBL5143537, “Quinazoline-based hydroxamic acid derivatives as dual histone methylation and deacetylation inhibitors for potential anticancer agents” (Bioorg Med Chem, 2022).

How the values were obtained:
[1] = Half life in rat liver microsomes at 1 uM by LC-MS/MS analysis; type: ADME, Microsome
[2] = Intrinsic clearance in rat liver microsomes at 1 uM by LC-MS/MS analysis; type: ADME, Microsome; details: read-out: CLH
A-431 = test: Antiproliferative activity against human A-431 cells measured after 72 hrs by MTT assay; type: functional, cell-based; details: A-431, 72 h
[3] = biological target: T1, Protein deacetylase HDAC6 (Homo sapiens, UniProt Q9UBN7); test: Inhibition of recombinant HDAC6 (unknown origin) using Ac-peptide-AMC as substrate preincubated for 15 mins followed by substrate addition and measured after 60 mins by fluorescence assay
T1 sequence (Q9UBN7 whole entry): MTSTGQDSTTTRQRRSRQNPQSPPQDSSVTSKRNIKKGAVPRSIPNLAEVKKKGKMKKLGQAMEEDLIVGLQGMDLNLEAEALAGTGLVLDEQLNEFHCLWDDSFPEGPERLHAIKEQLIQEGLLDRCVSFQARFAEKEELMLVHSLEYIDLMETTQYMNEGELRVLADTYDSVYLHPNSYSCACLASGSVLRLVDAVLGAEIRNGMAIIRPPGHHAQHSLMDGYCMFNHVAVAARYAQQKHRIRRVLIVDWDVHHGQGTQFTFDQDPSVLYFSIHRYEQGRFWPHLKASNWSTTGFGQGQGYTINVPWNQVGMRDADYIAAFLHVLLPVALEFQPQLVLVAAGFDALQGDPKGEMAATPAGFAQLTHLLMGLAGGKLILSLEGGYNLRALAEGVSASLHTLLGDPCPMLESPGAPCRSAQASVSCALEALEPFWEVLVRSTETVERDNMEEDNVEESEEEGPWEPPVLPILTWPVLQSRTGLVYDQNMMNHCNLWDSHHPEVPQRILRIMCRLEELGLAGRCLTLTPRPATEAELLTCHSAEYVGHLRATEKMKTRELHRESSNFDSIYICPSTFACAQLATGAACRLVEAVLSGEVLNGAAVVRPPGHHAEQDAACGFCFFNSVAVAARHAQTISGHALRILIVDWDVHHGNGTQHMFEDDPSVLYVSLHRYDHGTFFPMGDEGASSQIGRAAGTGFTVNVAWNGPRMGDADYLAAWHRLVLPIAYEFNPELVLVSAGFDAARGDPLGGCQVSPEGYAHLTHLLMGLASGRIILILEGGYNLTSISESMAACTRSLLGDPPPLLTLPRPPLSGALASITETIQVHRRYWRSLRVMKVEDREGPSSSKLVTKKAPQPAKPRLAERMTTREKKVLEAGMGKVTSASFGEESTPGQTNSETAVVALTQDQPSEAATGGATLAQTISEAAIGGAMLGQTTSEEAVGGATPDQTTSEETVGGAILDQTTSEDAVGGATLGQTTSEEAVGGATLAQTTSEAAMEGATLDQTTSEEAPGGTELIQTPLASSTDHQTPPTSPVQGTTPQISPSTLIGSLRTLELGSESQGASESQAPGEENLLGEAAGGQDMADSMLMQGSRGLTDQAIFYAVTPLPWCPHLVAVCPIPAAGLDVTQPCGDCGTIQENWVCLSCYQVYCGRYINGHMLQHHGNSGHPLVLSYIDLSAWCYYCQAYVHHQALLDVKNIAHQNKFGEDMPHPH

HT-29 = test: Antiproliferative activity against human HT-29 cells measured after 72 hrs by MTT assay; type: functional, cell-based; details: HT-29, 72 h
[4] = Cytotoxicity against human HL7702 cells measured after 72 hrs by MTT assay; details: HL7702 (L02) cells
[5] = biological target: T2, Histone-lysine N-methyltransferase EHMT1 (Homo sapiens, UniProt Q9H9B1); test: Inhibition of GLP (unknown origin)
T2 sequence (Q9H9B1 whole entry): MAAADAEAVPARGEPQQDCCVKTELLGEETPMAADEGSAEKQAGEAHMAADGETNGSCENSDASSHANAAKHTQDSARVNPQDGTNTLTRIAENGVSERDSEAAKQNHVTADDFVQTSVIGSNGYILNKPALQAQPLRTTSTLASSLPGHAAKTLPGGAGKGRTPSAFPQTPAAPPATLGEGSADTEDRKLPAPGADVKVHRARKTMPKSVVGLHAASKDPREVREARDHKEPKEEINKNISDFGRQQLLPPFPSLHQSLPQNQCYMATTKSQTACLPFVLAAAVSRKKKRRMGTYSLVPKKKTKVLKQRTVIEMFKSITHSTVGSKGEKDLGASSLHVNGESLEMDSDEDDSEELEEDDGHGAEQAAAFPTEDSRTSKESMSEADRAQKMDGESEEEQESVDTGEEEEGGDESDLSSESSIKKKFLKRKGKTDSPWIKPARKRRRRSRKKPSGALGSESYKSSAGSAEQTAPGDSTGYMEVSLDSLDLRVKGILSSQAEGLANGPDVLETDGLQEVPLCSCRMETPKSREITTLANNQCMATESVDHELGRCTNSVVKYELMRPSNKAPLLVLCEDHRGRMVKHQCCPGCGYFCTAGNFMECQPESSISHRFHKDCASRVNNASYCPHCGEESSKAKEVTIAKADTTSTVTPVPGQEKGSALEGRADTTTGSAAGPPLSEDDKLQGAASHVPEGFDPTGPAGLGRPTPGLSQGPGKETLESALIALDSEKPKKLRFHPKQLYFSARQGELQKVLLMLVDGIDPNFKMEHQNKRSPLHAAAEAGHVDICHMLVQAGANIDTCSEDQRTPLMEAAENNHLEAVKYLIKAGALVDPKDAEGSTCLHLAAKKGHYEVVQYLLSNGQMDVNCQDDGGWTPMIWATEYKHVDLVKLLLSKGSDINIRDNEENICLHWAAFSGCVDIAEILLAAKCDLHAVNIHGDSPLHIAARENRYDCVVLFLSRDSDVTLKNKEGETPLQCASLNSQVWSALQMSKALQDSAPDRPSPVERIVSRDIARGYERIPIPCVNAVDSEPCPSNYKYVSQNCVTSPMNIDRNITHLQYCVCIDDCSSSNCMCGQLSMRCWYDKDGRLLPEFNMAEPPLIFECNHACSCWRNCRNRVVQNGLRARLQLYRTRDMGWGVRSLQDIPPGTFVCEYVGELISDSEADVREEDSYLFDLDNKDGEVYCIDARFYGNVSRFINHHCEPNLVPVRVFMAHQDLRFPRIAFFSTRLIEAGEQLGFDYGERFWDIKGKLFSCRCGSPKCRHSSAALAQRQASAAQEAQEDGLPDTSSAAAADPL

K562 = test: Antiproliferative activity against human K562 cells measured after 72 hrs by MTT assay; type: functional, cell-based; details: K562, 72 h
HepG2 = test: Antiproliferative activity against human HepG2 cells measured after 72 hrs by MTT assay; type: functional, cell-based; details: HepG2, 72 h
Histone deacetylase 1 = Histone deacetylase 1 (Homo sapiens, UniProt Q13547); test: Inhibition of recombinant human HDAC1 expressed in baculovirus infection system using Ac-peptide-AMC as substrate preincubated for 15 mins followed by substrate addition and measured after 60 mins by fluorescence assay
Sequence of Histone deacetylase 1 (Q13547 whole entry): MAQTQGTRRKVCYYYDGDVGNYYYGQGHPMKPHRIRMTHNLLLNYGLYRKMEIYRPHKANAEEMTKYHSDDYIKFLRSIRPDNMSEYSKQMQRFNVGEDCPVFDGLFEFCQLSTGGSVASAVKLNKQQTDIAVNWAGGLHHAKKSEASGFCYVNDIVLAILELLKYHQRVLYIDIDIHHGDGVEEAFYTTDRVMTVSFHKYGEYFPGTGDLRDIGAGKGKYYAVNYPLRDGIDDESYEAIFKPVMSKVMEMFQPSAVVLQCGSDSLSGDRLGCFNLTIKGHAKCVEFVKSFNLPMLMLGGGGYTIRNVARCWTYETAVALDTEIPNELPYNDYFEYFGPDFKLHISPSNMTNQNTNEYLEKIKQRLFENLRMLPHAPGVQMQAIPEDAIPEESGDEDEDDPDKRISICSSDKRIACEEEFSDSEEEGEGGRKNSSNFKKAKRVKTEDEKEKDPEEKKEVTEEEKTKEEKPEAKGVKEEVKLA

MDA-MB-231 = test: Antiproliferative activity against human MDA-MB-231 cells measured after 72 hrs by MTT assay; type: functional, cell-based; details: MDA-MB-231, 72 h
HeLa = test: Antiproliferative activity against human HeLa cells measured after 72 hrs by MTT assay; type: functional, cell-based
HCT-116 = test: Antiproliferative activity against human HCT-116 cells measured after 72 hrs by MTT assay; type: functional, cell-based; details: HCT-116, 72 h

Row | half-life at 1 µM [1] [min] | CLint scaled at 1 µM [2] [mL/min/kg] | IC50 (A-431) [µM] | IC50 [3] [µM] | IC50 (HT-29) [µM] | IC50 [5] [µM] | IC50 (K562) [µM] | IC50 (HepG2) [µM] | IC50 (Histone deacetylase 1) [µM] | IC50 (MDA-MB-231) [µM] | IC50 (HeLa) [µM] | IC50 (HCT-116) [µM] | Compound | IC50 at 72 h [4] [µM]
1 | 16.2 | 153 |  |  |  |  |  |  |  |  |  |  | O=C(c1ccc(F)cc1)C1CCN(CCn2c(=O)[nH]c3ccccc3c2=O)CC1 [KETANSERIN] | 
2 |  |  | 16.9 | 0.017 | 12.9 | 0.0092 | 7.89 | 2.13 | 0.0032 | 7.89 | 8.85 | 44.5 | COc1cc2nc(NCCCCCC(=O)NO)nc(NC3CCN(Cc4ccccc4)CC3)c2cc1OC | 19.8
3 |  |  | > 50 | 0.131 | 47.4 | 0.097 | > 50 | > 50 | 0.0084 | > 50 | 37.4 | 25.7 | COc1cc2nc(NCCCCCC(=O)NO)nc(NC3CCN(C(C)C)CC3)c2cc1OC | > 50
4 |  |  | > 50 | 0.05 | > 50 | 0.19 | > 50 | > 50 | 0.094 | > 50 | > 50 | > 50 | COc1cc2nc(N3CCN(Cc4ccc(/C=C/C(=O)NO)cc4)CC3)nc(NC3CCN(Cc4ccccc4)CC3)c2cc1OC | > 50
5 |  |  | 3.38 |  | 1.35 |  | 0.92 | 2.69 |  | 3.23 | 1.74 | 5.01 | COc1cc2c(NC3CCN(C(C)C)CC3)nc(N3CCC(F)(F)CC3)nc2cc1OCCCN1CCCC1 | 3.23
6 |  |  | > 50 | 0.024 | 8 | 0.0016 | 10.1 | 12.1 | 0.051 | > 50 | 29.7 | > 50 | COc1cc2nc(N3CCN(CCCCCC(=O)NO)CC3)nc(NC3CCN(C(C)C)CC3)c2cc1OC | > 50
7 |  |  | 23.1 | 0.012 | 4.21 | 0.011 | 5.21 | 4.72 | 0.0042 | > 50 | 17.4 | 3.75 | COc1cc2nc(NCCCCCCC(=O)NO)nc(NC3CCN(C(C)C)CC3)c2cc1OC | 12.7
8 |  |  | 5.86 | 0.051 | 5.31 | 0.011 | 9.21 | 13.4 | 0.0013 | 44.2 | 6.39 | 6.93 | COc1cc2nc(NCCCCCC(=O)NO)nc(NC3CCN(C)CC3)c2cc1OC | 31.7
9 |  |  | > 50 | 0.016 | 12.9 | 0.021 | 17 | 6.76 | 0.0058 | > 50 | 9.49 | > 50 | COc1cc2nc(NCCCCCCC(=O)NO)nc(NC3CCN(C)CC3)c2cc1OC | > 50
